Source: patent publication US20020058701A1 (priority 2000, published 2002)

Tests used:
[1] = system: C57BL/ks diabetic (db/db) mice; assay: Glucose-lowering (plasma glucose) in diabetic db/db mice; type: in vivo; conditions: for Change in Glucose (mg/dL) 3 h: 3 h after initial dose, vehicle −8.0; for Change in Glucose (mg/dL) 3 h / Change in Glucose (mg/dL) 6 h: Table 1; for Change in Glucose (mg/dL) 6 h / Change in Glucose (mg/dL) 6 H: 6 h after initial dose; for Change in Glucose (mg/dL) 6 h: vehicle 64.5; for Change in Glucose (mg/dL) 8 h: 8 h after initial dose, vehicle 79.5; for Change in Glucose (mg/dL) 24 h: 24 h after initial dose, vehicle 18.6; for Change in Glucose (mg/dL) 54 H: 54 h after initial dose; for reduction in plasma glucose relative to vehicle (control) (in words): oral
Description: (§1) Genetically altered obese diabetic mice (designated C57BL/ks diabetic or db/db) were purchased from the Jackson Laboratory (Bar Harbor, Me., USA), and served as experimental animals. Male animals between the ages of 8-9 weeks were employed in the studies described here. Animals were housed (4 mice/cage) under standard laboratory conditions at 22° C. and 50% relative humidity, and were maintained on a diet of Purina rodent chow and water ad libitum. Prior to treatment, blood was collected from the tail vein of each animal. Mice that had plasma glucose levels between 350 and 600 mg/dL were used. Each treatment group consisted of eight mice that were distributed so that the mean glucose levels were equivalent in each group at the start of the study. Db/db mice received, orally by gavage: the experimental compound administered at 62.5, 125, or 250 mg/kg/day (unless otherwise noted), or metformin administered at […] for 1-3 days. Test compounds were delivered in a liquid vehicle containing 0.25% (w/v) carboxymethyl-cellulose, 1% (v/v) Tween […] (polyoxyethylene sorbitan monosterate), and up to 10% (v/v) dimethyl sulfoxide (DMSO) in a volume of 10 ml/kg. Blood was sampled from the tail vein at three hours, six, eight, twenty-four, and thirty hours post-administration (the first administration) of the particular compound in non-fasted conditions. Experiments 3-5 also sampled blood at fifty-four hours post-administration (the first administration) of the particular compound in non-fasted conditions. Blood samples were analyzed for plasma glucose levels. Individual body weights and mean food consumption (each cage) were also measured daily.
The isolated test substances were prepared as described previously (vide supra). Metformin (1,1-dimethylbiguanide), carboxymethyl cellulose and Tween 60 were purchased from Sigma Chemical Co. (St. Louis, Mo., USA; catalog #'s D-5035, C-4888, and p-1629, respectively). Plasma glucose levels were determined colorimetrically using glucose oxidase (Sigma Chemical Co.; Sigma catalog #315). Significant differences between groups (comparing compound-treated to vehicle-treated) were evaluated using analysis of variance and Fisher's post-hoc test.
Vehicle, metformin (250 mg/kg) or enriched extract (1000 mg/kg) were given to db/db mice at 0(initial), 8, 24, 32, 48, 56, 72, 80, and 96 hours post initial dose.
Plasma glucose levels were measured at baseline, 3 (day 1), 51 hours (Day 3), and 99 hours (Day 5).

[2] = Body weights and food consumption in diabetic db/db mice; type: in vivo; conditions: for Food Intake (g/mouse) 0-24 h: vehicle 6.8; for Body weight (g/mouse) (mean) 24 hr: vehicle 37.8 ± 0.8
Description: as §1

[3] = 250 mg/kg oral, dosed at 0, 8 and 24 h
[4] = 250 mg/kg oral, dosed at 0, 8 and 24 h, Table 2
[5] = 250 mg/kg, vehicle 38.0 ± 0.8, Table 3
[6] = 125 mg/kg, vehicle 6.1, Table 11
[7] = 125 mg/kg, vehicle 39.4 ± 0.4, Table 11
[8] = 125 mg/kg, vehicle 40.1 ± 0.4, Table 11

## 3-hydroxy-4-(3-methyl-2-butenyl)-5-methoxystilbene-2-carboxylic acid [Compound C]
[1]; Tables 4 and 6, 125 mg/kg, fifty-four hours after initial dosing, value = size of decline
  mean glucose levels declined from the baseline value: 60.4 mg/dL
[1]; Tables 4 and 6, 250 mg/kg, fifty-four hours after initial dosing, value = size of decline
  mean glucose levels declined from the baseline values: 122.0 mg/dL

## COc1cc(O)cc(/C=C/c2ccccc2)c1 [Compound B, 3-hydroxy-5-methoxystilbene]
[1]; [3]
  Change in Glucose (mg/dL) 3 h: -35.3 mg/dL
  Change in Glucose (mg/dL) 6 h: +29.3 mg/dL
[1]; [4]
  Change in Glucose (mg/dL) 8 h: +52.2 mg/dL
  Change in Glucose (mg/dL) 24 h: -50.6 mg/dL
[1]; 250 mg/kg oral, dosed at 0, 8 and 24 h, 30 h after initial dose, Table 2
  Change in Glucose (mg/dL) 30 h: +36.5 mg/dL
[2]; 250 mg/kg, Table 3
  Food Intake (g/mouse) 0-24 h: 5.9 g/mouse
  Body weight (g/mouse) (mean) 24 hr: 37.8 ± 0.4 g/mouse
[2]; [5]
  Body weight (g/mouse) (mean) 0 h: 37.8 ± 0.4 g/mouse

## COc1cc(/C=C/c2ccccc2)c(C(=O)O)c(O)c1CC=C(C)C [Compound C, 3-hydroxy-4-(3-methyl-2-butenyl)-5-methoxystilbene-2-carboxylic acid]
[1]; 62.5 mg/kg q.d. oral at 0, 24, 48 h, vehicle 35.9, Tables 4 and 6 (dose of row)
  Change in Glucose (mg/dL) 6 H: -18.6 mg/dL
[1]; 62.5 mg/kg q.d. oral at 0, 24, 48 h, 30 h after initial dose, vehicle 79.6, Tables 4 and 6
  Change in Glucose (mg/dL) 30 H: -40.7 mg/dL
[1]; 62.5 mg/kg q.d. oral at 0, 24, 48 h, vehicle 60.3, Tables 4 and 6
  Change in Glucose (mg/dL) 54 H: 65.4 mg/dL
[1]; 125 mg/kg q.d. oral at 0, 24, 48 h, vehicle 35.9, Tables 4 and 6 (dose of row)
  Change in Glucose (mg/dL) 6 H: -34.3 mg/dL
[1]; 125 mg/kg q.d. oral at 0, 24, 48 h, 30 h after initial dose, vehicle 79.6, Tables 4 and 6
  Change in Glucose (mg/dL) 30 H: -69.7 mg/dL
[1]; 125 mg/kg q.d. oral at 0, 24, 48 h, vehicle 60.3, Tables 4 and 6
  Change in Glucose (mg/dL) 54 H: -60.4 mg/dL
[1]; [3]
  Change in Glucose (mg/dL) 3 h: -10.4 mg/dL
  Change in Glucose (mg/dL) 6 h: -8.4 mg/dL
[1]; [4]
  Change in Glucose (mg/dL) 8 h: +4.5 mg/dL
  Change in Glucose (mg/dL) 24 h: -122.8 mg/dL
[1]; 250 mg/kg q.d. oral at 0, 24, 48 h, vehicle 35.9, Tables 4 and 6
  Change in Glucose (mg/dL) 6 H: -120.8 mg/dL
[1]; 250 mg/kg q.d. oral at 0, 24, 48 h, 30 h after initial dose, vehicle 79.6, Tables 4 and 6
  Change in Glucose (mg/dL) 30 H: -221.4 mg/dL
[1]; 250 mg/kg q.d. oral at 0, 24, 48 h, vehicle 60.3, Tables 4 and 6
  Change in Glucose (mg/dL) 54 H: -122.0 mg/dL
[1]; Table 8, 125 mg/kg, thirty hours after initial dosing, value = size of decline
  mean glucose levels declined from the baseline value: 12.2 mg/dL
[1]; Tables 1-2, 250 mg/kg, eight hours after initial dosing, value = size of rise
  mean glucose levels rose from the baseline values: 4.5 mg/dL
[1]; Tables 1-2, 250 mg/kg, six hours after initial dosing, value = size of decline
  mean glucose levels declined from the baseline value: 8.4 mg/dL
[1]; Tables 1-2, 250 mg/kg, thirty hours after dosing, value = size of rise
  mean glucose levels rose from the baseline value: 36.5 mg/dL
[1]; Tables 1-2, 250 mg/kg, twenty-four hours after initial dosing, value = size of decline
  mean glucose levels declined from the baseline values: 122.8 mg/dL
[1]; Tables 4 and 6, 125 mg/kg, six hours after initial dosing, value = size of decline
  mean glucose levels declined from the baseline value: 34.3 mg/dL
[1]; dose level of 250 mg/kg, Tables 1 and 2
  reduction in plasma glucose relative to vehicle (control) (in words): statistically significant reduction
[1]; dose levels of 62.5, 125, and 250 mg/kg, Tables 4 and 6
  reduction in plasma glucose relative to vehicle (control) (in words): statistically significant reduction
[2]; 62.5 mg/kg, 125 mg/kg, and 250 mg/kg, Tables 5 and 7
  adverse effect on food intake or body weight (in words): absence of any significantly adverse effect
[2]; 62.5 mg/kg, vehicle 6.3, Tables 5 and 7
  Food Intake (g/mouse) 0-48 h: 5.9 g/mouse
[2]; 62.5 mg/kg, vehicle 39.2 ± 0.5, Tables 5 and 7
  Body weight (g/mouse) (mean) 0 h: 37.4 ± 0.4 g/mouse
[2]; 62.5 mg/kg, vehicle 39.5 ± 0.5, Tables 5 and 7
  Body weight (g/mouse) (mean) 48 hr: 38.2 ± 0.5 g/mouse
[2]; 125 mg/kg, vehicle 6.3, Tables 5 and 7
  Food Intake (g/mouse) 0-48 h: 5.6 g/mouse
[2]; 125 mg/kg, vehicle 39.2 ± 0.5, Tables 5 and 7
  Body weight (g/mouse) (mean) 0 h: 39.4 ± 0.4 g/mouse
[2]; 125 mg/kg, vehicle 39.5 ± 0.5, Tables 5 and 7
  Body weight (g/mouse) (mean) 48 hr: 39.7 ± 0.3 g/mouse
[2]; 250 mg/kg
  food intake compared with the normal food intake range (5-6 g/day/mouse) (in words): less than that of the normal food intake range
[2]; 250 mg/kg, Table 3
  Food Intake (g/mouse) 0-24 h: 3.3 g/mouse
  Body weight (g/mouse) (mean) 24 hr: 38.0 ± 0.7 g/mouse
  adverse effect on food intake or body weight (in words): absence of any significantly adverse effect
[2]; 250 mg/kg, vehicle 6.3, Tables 5 and 7
  Food Intake (g/mouse) 0-48 h: 4.3 g/mouse
[2]; [5]
  Body weight (g/mouse) (mean) 0 h: 38.7 ± 0.8 g/mouse
[2]; 250 mg/kg, vehicle 39.2 ± 0.5, Tables 5 and 7
  Body weight (g/mouse) (mean) 0 h: 39.1 ± 0.8 g/mouse
[2]; 250 mg/kg, vehicle 39.5 ± 0.5, Tables 5 and 7
  Body weight (g/mouse) (mean) 48 hr: 38.4 ± 0.1 g/mouse

## COc1cc(/C=C/c2ccccc2)cc(O)c1CC=C(C)C [Compound D, 3-hydroxy-5-methoxy-4-(3-methyl-2-butenyl)stilbene]
[1]; 125 mg/kg q.d. oral at 0, 24, 48 h, vehicle 20.0, Table 10
  Change in Glucose (mg/dL) 6 H: […]
[1]; 125 mg/kg q.d. oral at 0, 24, 48 h, 30 h after initial dose, vehicle 0.1, Table 10
  Change in Glucose (mg/dL) 30 H: […]
[1]; 125 mg/kg q.d. oral at 0, 24, 48 h, vehicle −20.2, Table 10
  Change in Glucose (mg/dL) 54 H: […]
[1]; Table 10, 125 mg/kg, fifty-four hours after initial dosing, value = size of decline
  mean glucose levels declined from baseline values: […]
[1]; Table 10, 125 mg/kg, six hours after initial dosing, value = size of decline
  mean glucose levels declined from the baseline value: […]
[1]; Table 10, 125 mg/kg, thirty hours after initial dosing, value = size of decline
  mean glucose levels declined from the baseline value: […]
[1]; dose level of 125 mg/kg, Tables 8 and 10
  reduction in plasma glucose relative to vehicle (control) (in words): […]
[2]; [6]
  Food Intake (g/mouse) 0-48 h: 5.7 g/mouse
[2]; [7]
  Body weight (g/mouse) (mean) 0 h: […]
[2]; [8]
  Body weight (g/mouse) (mean) 48 hr: 39.7 ± 0.7 g/mouse

## COc1cc(O)cc(CCc2ccccc2)c1CCC(C)C [Compound F]
[2]; [6]
  Food Intake (g/mouse) 0-48 h: 5.8 g/mouse
[2]; [7]
  Body weight (g/mouse) (mean) 0 h: 39.3 ± 0.8 g/mouse
[2]; [8]
  Body weight (g/mouse) (mean) 48 hr: 39.8 ± 0.8 g/mouse
